Common to all, as to test: growth of human tumour cells (NCI), 48 h
For assay [1], the system named is BT-549 breast.
Assay [2] concerns CCRF-CEM leukemia.
The test system of assay [3] is HCT-116 colon.
The test system of assay [4] is HCT-15 colon.
The test system of assay [5] is HOP-92 NSCLC.
The test system of assay [6] is HS 578T breast.
The subject of assay [7] is KM12 colon.
Assay [8] concerns MDA-MB-231 breast.
Assay [9] deals with NCI-H23 lung.
Assay [10] has as its system NCI-H522 lung.
Assay [11] relates to NCI/ADR-RES ovarian.
In assay [12] the test system is OVCAR-3 ovarian.
The subject of assay [13] is OVCAR-5 ovarian.
The test system of assay [14] is OVCAR-8 ovarian.
The test system of assay [15] is RPMI-8226 leukemia.
Assay [16] deals with SF-295 CNS.
In assay [17] the test system is SN12C renal.
In assay [18] the test system is T-47D breast.
Assay [19] relates to HL-60(TB) leukemia.
In assay [20] the test system is MCF7 breast.

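Exposure lasted 48 hours, with cells grown in 96-well plates and compounds tested at five concentrations. At the TGI there is no net growth.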 Bounds are passed on as bounds.

`O=S(=O)(O)c1ccccc1N=Nc1ccc(N=Nc2c(O)ccc3ccccc23)c(S(=O)(=O)O)c1`: the TGI in [1], in assay [2], in assay [3], in [4], in assay [5] and in assay [6] was greater than 100 µM in each case. Moreover, the TGI in assay [7], in assay [8], in [9], in [10], in assay [11] and in assay [12] was greater than 100 µM each time. Besides, the TGI in assay [13], in [14], in assay [15], in assay [16], in assay [17] and in assay [18] was greater than 100 µM in each case.

For `Cc1ccc(C)c(COCCOCn2c(=O)[nH]c(=O)c3cc(Br)ccc32)c1`, the TGI in [2], in [3], in assay [4], in assay [19], in [5] and in [7] was greater than 100 µM each time. In addition, the TGI in assay [20], in [8], in assay [9], in [10], in assay [11] and in [12] was greater than 100 µM each time. In addition, the TGI in assay [13], in [14], in assay [16], in assay [17] and in [18] was greater than 100 µM each time.

In the case of `CCN(CC)CCNC(=O)c1nn(-c2ccc(Cl)cc2)c2c1CCc1cc(OC)ccc1-2`, the TGI in assay [1] was determined as 32.1 µM; in [2], 20.1 µM; in [3], 13.3 µM; in [4], 7.81 µM; in [19], 14.5 µM; in assay [5] it was 15.8 µM. Besides, the TGI was determined as 13.8 µM in assay [6]; 19.5 µM in assay [7]; 24.5 µM in assay [8]; 25.8 µM in assay [9]; 11 µM in [10]; 20.6 µM in [12]. Further, the TGI stood at 15 µM in [13]; 28.2 µM in assay [14]; 8.72 µM in assay [15]; 7.37 µM in assay [16]; 24.2 µM in assay [17]; 21 µM in assay [18].

`Cc1nnc([C@@]2(C)CC[C@H]3[C@@H](CCC4=CC(=O)CC[C@@]43C)[C@@H]2CC#N)o1`: the TGI in assay [1], in assay [2], in [3], in assay [4], in assay [19] and in [5] was greater than 100 µM in each case. In addition, the TGI in assay [6], in assay [7], in [20], in assay [8], in assay [9] and in assay [10] was greater than 100 µM throughout. Also, the TGI in assay [11], in assay [12], in assay [13], in assay [14], in assay [15] and in assay [16] was greater than 100 µM each time. Also, the TGI in [17] is greater than 100 µM.

As to `N=C(N)SCc1ccc(N=C=S)cc1`, the TGI was greater than 100 µM in assay [2]; 27.2 µM in assay [3]; 24.6 µM in [4]; 35.9 µM in [19]; 24.2 µM in assay [5]; 42.1 µM in assay [6]. The TGI came out at 27.6 µM in [7]; 20.1 µM in assay [8]; 27.5 µM in [9]; 21.6 µM in assay [10]; 43 µM in [11]; 27.6 µM in assay [13]. In addition, the TGI in assay [14] is 31.6 µM; in assay [15], greater than 100 µM; in [16], 31.2 µM; in assay [17] it was 28.5 µM; in [18], 34.9 µM.

On to `CC(C)(SCc1ccccc1)C(N)C(=O)O` (stereo unspecified), for which the TGI in assay [1], in [2], in assay [3], in [4], in [19] and in assay [5] was greater than 100 µM throughout. The TGI in assay [7], in assay [8], in assay [9], in assay [10], in assay [11] and in [12] was greater than 100 µM in each case. Further, the TGI in assay [13], in assay [14], in assay [15], in assay [16], in [17] and in [18] was greater than 100 µM in each case.

With `CCOC(=O)c1cn2c(ccc3sc4ccccc4c(=O)c32)n1`, the TGI in assay [1], in assay [2], in assay [3], in assay [4], in assay [19] and in assay [5] was greater than 100 µM in each case. In addition, the TGI in assay [6], in [7], in [20], in assay [8], in assay [9] and in assay [10] was greater than 100 µM throughout. The TGI in assay [11], in assay [12], in assay [13], in assay [14], in assay [15] and in assay [16] was greater than 100 µM throughout. In addition, the TGI in assay [17] is greater than 100 µM.
